Measured values reported in patent US8226943B2, “Antibodies to notch receptors” (OncoMed Pharmaceuticals, Inc., priority 2008, dated 2012).

Experiments:
PE13 breast tumor cells = test: PE13 breast tumor xenograft growth; type: in vivo, NOD/SCID mice
Method: In certain embodiments, NOD/SCID mice injected with 50,000 PE13 or T3 breast tumor cells were treated with anti-Notch2/3 antibody 59R1 or control antibody 1B7.11 two days following cell injections. Antibodies were dosed at 10 mg/kg twice week.
In a further experiment, anti-Notch2/3 antibodies were tested for an effect on breast tumor growth. NOD/SCID mice were injected with 50,000 PE13 or T3 breast tumor cells, and tumors were allowed to grow to a size of between 65 to 200 mm^3 after which mice were randomized (n=10 per experimental group), and antibodies administration begun. Animals were treated with 15 mg/kg of either control 1B7.11 antibodies or anti-Notch2/3 59R1 antibodies twice weekly. Tumor size was measured twice weekly, and tumor volume was calculated as described (see Michieli et al., 2004).
(§1) The 59R1 IgG2 antibody was also tested in vivo in the breast tumor xenograft lines OMP-B34, OMP-B39, OMP-B44, PE13, and UM-T1, the pancreas tumor xenograft line OMP-PN8, and the colon tumor xenograft line OMP-C8. These tumor xenograft lines were established by adhering to procedures described in Al-Hajj et al., 2003, Proc. Natl. Acad. Sci. USA, 100:3983-3988. Female NOD/SCID immuno-compromised mice 7-10 weeks old were used for the establishment of the breast tumor xenografts and male NOD/SCID mice were used for the OMP-Pn8 and OMP-C8 tumor-models (Harlan, Indianapolis, Ind.). The 59R1 IgG2 antibody was also tested in vivo in a Colo-205 colon tumor xenograft model. Female immunodeficient bg/nu XID mice on a Swiss CD-1 background were used for the Colo-205 xenograft tumor model. In case of the breast cancer models, slow-releasing estrogen pellets (0.36 mg) had to be implanted. Mice were subcutaneously injected on the right flank with 50,000 (OMP-B34, OMP-B39, OMP-B44, PE13, and UM-T1) or 1×10^7 (Colo-205) viable cells, respectively, in a mixture of PBS (without magnesium or calcium) and Matrigel at a 1:1 ratio. The injected total volume per mouse was 200 μl with 50% being Matrigel. Once the tumor had reached a size between 65-200 mm^3, the mice were randomized. Antibodies were administered weekly and tumors measured twice weekly. LZ1 (a human antibody that recognizes lyzozyme) or 1B711 (a murine IgG1 antibody that recognizes the hapten trinitrophenol) was used as a control antibody for treatment of each tumor type. Tumor volume was calculated as described Al-Hajj et al. (2003). Data are expressed as the mean and the mean±S.E.M. Group means were compared using Student's two-tailed, unpaired t-test. […] All statistical analysis was performed using Microsoft EXCEL and Graph Pad PRISM.
In one embodiment, NOD/SCID mice were injected with PE13 breast tumor cells. The mice were treated with anti-Notch2/3 antibody 59R1, anti-Notch2/3 antibody 59R5, or control antibody. Antibodies were dosed at 15 mg/kg once per week in a “preventative” mode where dosing was initiated two days after cell injection.
In one embodiment, to evaluate the effect of 59R5 on cancer stem cells, a tumor recurrence study was carried out in the PE13 breast tumor model. NOD/SCID mice were injected with PE13 breast tumor cells. The tumors were allowed to grow for 40 days before treatments were initiated. The mice were treated with taxol at 15 mg/kg twice per week for 5 weeks, in combination with either control antibody or anti-Notch 2/3 antibody 59R5. After 5 weeks, the taxol treatments were stopped and the antibody treatments were continued.
(§2) Tumor volumes and p values for each experiment are shown relative to the control group. The PE13, C28 and Colo205 studies were carried out as described in Example 14. PN8 studies were carried out as described above. For the PN8 experiment, the control is gemcitabine alone and values for 59R1 and 59R5 are the combinations with gemcitabine. Antibodies were dosed once per week at 15 mg/kg for all experiments.

[1] = test system: PN8 pancreatic tumor cells; test: PN8 pancreatic tumor xenograft growth; type: in vivo, NOD/SCID mice; conditions: for PN8 Tumor vol relative to the control group: combination with gemcitabine, control is gemcitabine alone, antibody 15 mg/kg once per week
Method: as §1
In one embodiment, NOD/SCID mice were injected with PN8 pancreatic tumor cells. The tumors were allowed to grow for approximately 33 days until they had reached an average tumor volume of 150 mm^3. The mice were treated with gemcitabine at 20 mg/kg once per week for four weeks in combination with control antibody, anti-Notch2/3 antibody 59R1, or anti-Notch2/3 antibody 59R5.
as §2

PE13 tumors = test: Microarray analysis of 59R1 and 59R5 treated PE13 tumors; type: in vivo, mice; conditions: for Fold Foxc2 / Fold Gzma / Fold Hey2 / Fold Heyl / Fold Mmp9 / Fold Notch3 / Fold Pdcd1lg2 / Fold Rgs4 / Fold Rgs5: treated vs. control, mean of 3 animals per group
Description: The numbers are mean differential expression values for treated vs. control animals, with 3 animals per group.

[2] = established tumors, 15 mg/kg once a week

| Substance | PE13 tumor growth compared to control (PE13 breast tumor cells; 10 mg/kg twice week, started two days following cell injections) | PE13 Tumor vol relative to the control group (PE13 breast tumor cells; 15 mg/kg once per week) | PE13 breast cancer growth relative to control antibody (PE13 breast tumor cells; [2]) | PE13 tumor growth compared to control (PE13 breast tumor cells; established tumors, 15 mg/kg twice weekly) | PN8 Tumor vol relative to the control group [1] | PN8 pancreatic tumor growth relative to control antibody [1, 2] | Fold Foxc2 (PE13 tumors) | Fold Gzma (PE13 tumors) | Fold Hey2 (PE13 tumors) | Fold Heyl (PE13 tumors) | Fold Mmp9 (PE13 tumors) | Fold Notch3 (PE13 tumors) | Fold Pdcd1lg2 (PE13 tumors) | Fold Rgs4 (PE13 tumors) | Fold Rgs5 (PE13 tumors) | inhibition of PE13 tumor growth (PE13 breast tumor cells; 15 mg/kg once per week, preventative mode (dosing two days after cell injection)) | PE13 tumor recurrence after high-dose taxol treatment (PE13 breast tumor cells; taxol 15 mg/kg twice per week for 5 weeks plus antibody, then antibody only) | PN8 tumor growth, antibody in combination with gemcitabine ([1]; gemcitabine 20 mg/kg once per week for four weeks) | Notch pathway as measured by gene expression (Foxc2, Hey2, Heyl, Notch3) (PE13 tumors; microarray, p<0.01) |
| --- | --- | --- | --- | --- | --- | --- | --- | --- | --- | --- | --- | --- | --- | --- | --- | --- | --- | --- | --- |
| 59R1: human IgG2 antibody binding Notch2 and Notch3; heavy and light chain SEQ ID NO:16 and 18; ATCC PTA-9547 | significantly reduced | 0.25 | inhibit breast cancer growth | significantly reduced | 0.27 | inhibit pancreatic tumor growth | −5.10 | 7.42 | −4.40 | −3.33 | −1.92 | −2.10 | 2.36 | −2.71 | −4.32 |  |  |  |  |
| 59R5: human antibody that specifically binds human Notch 2 and human Notch 3; heavy and light chain SEQ ID NO:49 and 18; ATCC PTA-10170 |  | 0.18 |  |  | 0.11 |  | −3.00 | 2.80 | −2.46 | −2.79 | −2.35 | −1.86 | 4.97 | −2.90 | −2.14 | greater than 80% | significantly delay tumor recurrence | inhibited tumor growth at a similar level as antibody 59R1 | significantly inhibited the Notch pathway |
